Patent publication US6001799A, “Method of treating hepatitis C in non-responders to interferon treatment” (SciClone Pharmaceuticals, Inc., priority 1993, dated 1999)
Where no end group is shown, it is not given here.

Assays:
[1] = system: Hepatitis C; test: Treatment of Hepatitis C patients with Thymosin α-1 during α-IFN administration (Example 6); type: in vivo, human; details: after 6 months
Protocol: The course of the disease and its response to drug treatments may be followed by clinical examination and laboratory findings.
Efficacy of Thymosin α-1 for treatment of Hepatitis C was shown in two Hepatitis C patients who were previous non-responders to α-interferon. These two patients were treated with Thymosin α-1 by subcutaneous injection of 1 mg thereof twice weekly, during administration three times weekly of 2 million units of α-IFN. […] In three additional Hepatitis C patients treated as above, serum ALT levels were reduced 50% after 6 months.

[2] = system: response to influenza vaccine; details: cited from earlier work
[3] = system: Woodchuck Hepatitis Virus; details: infected woodchuck; cited from earlier work
[4] = system: hepatitis B virus (HBV); details: treated for a year, cited from earlier work
[5] = system: nonsmall cell lung cancer; details: both THNα1 treatment groups; cited from earlier work
[6] = system: HCV-related diseases; details: in vivo; cited from earlier work

Row | Compound | reduction of serum ALT (threshold not achieved) ([1]; six additional Hepatitis C patients, same regimen with α-IFN) [%] | response to treatment (serum ALT levels reduced to normal) ([1]; six other Hepatitis C patients, same regimen with α-IFN) | serum ALT levels reduced ([1]; three additional Hepatitis C patients, same regimen with α-IFN) [%] | reduction of serum alanine transaminase (ALT) ([1]; two patients, previous non-responders to α-interferon, 1 mg s.c. twice weekly during 2 million units α-IFN three times weekly) [%] | antibody to influenza ([2]; s.c. twice weekly from vaccination, six weeks post-vaccine) | toxicity in drug recipients ([2]; s.c. twice weekly) | clinical parameters [3] | viral DNA replication [3] | serum ALT ([4]; THNα1 5 patients, TF-5 2 patients) | patients initially positive for HBSAg who cleared this antigen ([4]; THNα1 and TF-5 patients pooled) | patients with reduced levels of serum HBV DNA ([4]; THNα1 and TF-5 patients pooled) | relapse-free survival and overall survival versus placebo group [5] | effectiveness in halting or slowing progression of HCV-related diseases [6]
1 | Thymosin α-1 (SDAAVDTSSEITTKDLKEKKEVVEEAEN; ends and bridges not checked; UniProt P06454 2-29, looked up) | < 50 | complete response | 50 | 50 | higher levels of antibody to influenza than controls | No clinical or biochemical toxicity | no improvement | suppressed viral DNA replication | marked decrease | 5 of 6 | 6 of the 7 | greater | 
2 | Nc1nc2c(ncn2COCCO)c(=O)[nH]1 [acyclovir] |  |  |  |  |  |  |  |  |  |  |  |  | ineffective
